According to ChEMBL document CHEMBL1914359, “Bendigoles D-F, bioactive sterols from the marine sponge-derived Actinomadura sp. SBMs009” (Bioorg Med Chem, 2011):
pIC50: −log10 of the molar value. The source made the active and inactive calls. The rule behind the calls is not given here.

Experiments:
Format in all cases: cell-based
[1] = biological target: T1, Glucocorticoid receptor (Homo sapiens) (UniProt P04150); test: Inhibition of EGFP-tagged GR nuclear translocation in human SH-SY5Y cells at 250 uM after 1 hr using Hoechst staining by fluorescence microscopy relative to control
T1 sequence (whole entry): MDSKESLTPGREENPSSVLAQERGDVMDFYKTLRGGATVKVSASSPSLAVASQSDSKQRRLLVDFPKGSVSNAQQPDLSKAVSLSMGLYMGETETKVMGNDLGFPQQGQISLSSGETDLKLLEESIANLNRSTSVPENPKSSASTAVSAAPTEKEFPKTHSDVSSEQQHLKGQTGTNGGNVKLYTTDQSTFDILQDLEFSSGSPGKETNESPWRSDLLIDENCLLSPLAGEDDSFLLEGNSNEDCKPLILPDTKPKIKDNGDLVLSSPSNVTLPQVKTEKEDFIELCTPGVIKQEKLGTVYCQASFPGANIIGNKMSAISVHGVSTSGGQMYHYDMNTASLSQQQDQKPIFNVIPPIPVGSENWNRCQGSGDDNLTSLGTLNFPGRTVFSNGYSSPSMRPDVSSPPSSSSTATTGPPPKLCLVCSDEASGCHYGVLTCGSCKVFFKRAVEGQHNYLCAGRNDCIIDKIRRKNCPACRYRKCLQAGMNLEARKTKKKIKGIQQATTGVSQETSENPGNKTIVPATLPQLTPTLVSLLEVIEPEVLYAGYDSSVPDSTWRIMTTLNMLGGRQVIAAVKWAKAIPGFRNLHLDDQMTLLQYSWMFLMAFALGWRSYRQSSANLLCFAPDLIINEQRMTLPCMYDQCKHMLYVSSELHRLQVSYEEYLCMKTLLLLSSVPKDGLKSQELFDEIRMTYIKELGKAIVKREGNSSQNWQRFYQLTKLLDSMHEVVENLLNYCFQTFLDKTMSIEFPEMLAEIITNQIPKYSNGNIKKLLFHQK

[2] = biological target: T1, Glucocorticoid receptor (Homo sapiens); test: Inhibition of EGFP-tagged GR nuclear translocation in human HaCaT cells at 250 uM after 1 hr using Hoechst staining by fluorescence microscopy relative to control
[3] = biological target: T1, Glucocorticoid receptor (Homo sapiens); test: Inhibition of EGFP-tagged GR nuclear translocation in human HaCaT cells at 2.5 uM after 1 hr using Hoechst staining by fluorescence microscopy relative to control
[4] = biological target: T1, Glucocorticoid receptor (Homo sapiens); test: Inhibition of EGFP-tagged GR nuclear translocation in human U2OS cells at 2.5 uM after 1 hr using Hoechst staining by fluorescence microscopy relative to control
L929 = test: Cytotoxicity against mouse L929 cells after 5 days by MTT assay; conditions: for Activity: mouse, l929, 120 h
[5] = biological target: T1, Glucocorticoid receptor (Homo sapiens); test: Inhibition of EGFP-tagged GR nuclear translocation in human U2OS cells at 250 uM after 1 hr using Hoechst staining by fluorescence microscopy relative to control
[6] = biological target: T1, Glucocorticoid receptor (Homo sapiens); test: Inhibition of EGFP-tagged GR nuclear translocation in human SH-SY5Y cells at 2.5 uM after 1 hr using Hoechst staining by fluorescence microscopy relative to control
[7] = Inhibition of IL1-beta-induced GFP-tagged NFkappaB nuclear translocation in CHO cells pretreated for 4 hrs before IL1-beta challenge using Hoechst staining by fluorescence microscopy relative to control; conditions: Cricetulus griseus

| SMILES | inhibition [1] | inhibition [2] | inhibition [3] | inhibition [4] | Activity (L929) | inhibition [5] | inhibition [6] | pIC50 (L929; Mus musculus, L929, 120 h) | pIC50 [7] |
| --- | --- | --- | --- | --- | --- | --- | --- | --- | --- |
| CC(=O)[C@@H](C)[C@H]1CC[C@H]2[C@@H]3[C@H](O)CC4=CC(=O)C=C[C@]4(C)[C@H]3C[C@H](O)[C@]12C (relative stereo) | Active | Active | Active | Active | Non-toxic | Active | Active |  |  |
| C[C@H](C(=O)O)[C@H]1CC[C@H]2[C@@H]3[C@H](O)CC4=CC(=O)C=C[C@]4(C)[C@H]3C[C@H](O)[C@]12C (relative stereo) | Active | Active | Active | Active |  | Active | Active | 4.52 |  |
| C[C@H](CCC(=O)O)[C@H]1CC[C@H]2[C@@H]3[C@H](O)CC4=CC(=O)C=C[C@]4(C)[C@H]3C[C@H](O)[C@]12C (relative stereo) | Active | Active | Active | Active | Non-toxic | Active | Active |  | 4.15 |
